Experimental data as given in ChEMBL document CHEMBL4433199, “First-in-class allosteric inhibitors of bacterial IMPDHs” (Eur J Med Chem, 2019).
The source made the active and inactive calls. No cut-off for these calls is given here.

What was measured:
[1] = molecular target: T1, Inosine-5'-monophosphate dehydrogenase (Pseudomonas aeruginosa (strain ATCC 15692 / DSM 22644 / CIP 104116 / JCM14847 / LMG 12228 / 1C / PRS 101 / PAO1)) (UniProt Q9HXM5); test: Inhibition of Pseudomonas aeruginosa IMPDH assessed as Km for IMP at 20 uM using IMP as substrate in presence of 2 mM NAD+ and 0.2 mM MgATP (reference value: 483 +/- 65 microM)
T1 sequence (whole entry): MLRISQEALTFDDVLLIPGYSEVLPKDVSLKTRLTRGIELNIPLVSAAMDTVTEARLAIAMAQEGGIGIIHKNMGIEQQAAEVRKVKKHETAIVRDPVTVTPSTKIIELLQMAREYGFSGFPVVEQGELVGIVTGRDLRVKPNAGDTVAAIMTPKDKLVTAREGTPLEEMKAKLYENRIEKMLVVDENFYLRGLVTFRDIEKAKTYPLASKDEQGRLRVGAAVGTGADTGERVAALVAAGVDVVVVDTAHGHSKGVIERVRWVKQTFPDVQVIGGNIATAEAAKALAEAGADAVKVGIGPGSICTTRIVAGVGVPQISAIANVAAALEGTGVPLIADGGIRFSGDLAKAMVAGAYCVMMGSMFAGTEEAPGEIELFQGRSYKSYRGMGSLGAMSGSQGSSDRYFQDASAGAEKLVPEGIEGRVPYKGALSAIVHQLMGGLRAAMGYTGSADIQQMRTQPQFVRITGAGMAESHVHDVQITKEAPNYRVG

[2] = molecular target: T1, Inosine-5'-monophosphate dehydrogenase (Pseudomonas aeruginosa (strain ATCC 15692 / DSM 22644 / CIP 104116 / JCM14847 / LMG 12228 / 1C / PRS 101 / PAO1)); test: Inhibition of Pseudomonas aeruginosa IMPDH at 47.2 uM using IMP as substrate in the presence of NAD+ incubated for 70 secs relative to control
[3] = molecular target: T2, Inosine-5'-monophosphate dehydrogenase (Pseudomonas aeruginosa (strain ATCC 15692 / DSM 22644 / CIP 104116 / JCM14847 / LMG 12228 / 1C / PRS 101 / PAO1), UniProt Q9HXM5); test: Inhibition of Pseudomonas aeruginosa IMPDH using IMP as substrate in the presence of NAD+ incubated for 70 secs
T2 sequence (Q9HXM5 whole entry): T1 sequence (whole entry)

[4] = molecular target: T1, Inosine-5'-monophosphate dehydrogenase (Pseudomonas aeruginosa (strain ATCC 15692 / DSM 22644 / CIP 104116 / JCM14847 / LMG 12228 / 1C / PRS 101 / PAO1)); test: Competitive inhibition of Pseudomonas aeruginosa IMPDH using IMP as substrate and NAD+ in presence of varying ATP incubated for 70 secs
[5] = molecular target: T1, Inosine-5'-monophosphate dehydrogenase (Pseudomonas aeruginosa (strain ATCC 15692 / DSM 22644 / CIP 104116 / JCM14847 / LMG 12228 / 1C / PRS 101 / PAO1)); test: Inhibition of Pseudomonas aeruginosa IMPDH at 42.9 uM using IMP as substrate in the presence of NAD+ incubated for 70 secs relative to control
[6] = molecular target: T1, Inosine-5'-monophosphate dehydrogenase (Pseudomonas aeruginosa (strain ATCC 15692 / DSM 22644 / CIP 104116 / JCM14847 / LMG 12228 / 1C / PRS 101 / PAO1)); test: Inhibition of Pseudomonas aeruginosa IMPDH at 48.2 uM using IMP as substrate in the presence of NAD+ incubated for 70 secs relative to control
[7] = molecular target: T1, Inosine-5'-monophosphate dehydrogenase (Pseudomonas aeruginosa (strain ATCC 15692 / DSM 22644 / CIP 104116 / JCM14847 / LMG 12228 / 1C / PRS 101 / PAO1)); test: Inhibition of Pseudomonas aeruginosa IMPDH at 50.8 uM using IMP as substrate in the presence of NAD+ incubated for 70 secs relative to control
[8] = molecular target: T1, Inosine-5'-monophosphate dehydrogenase (Pseudomonas aeruginosa (strain ATCC 15692 / DSM 22644 / CIP 104116 / JCM14847 / LMG 12228 / 1C / PRS 101 / PAO1)); test: Non-competitive inhibition of Pseudomonas aeruginosa IMPDH using IMP as substrate and NAD+ in presence of ATP incubated for 70 secs
[9] = molecular target: T1, Inosine-5'-monophosphate dehydrogenase (Pseudomonas aeruginosa (strain ATCC 15692 / DSM 22644 / CIP 104116 / JCM14847 / LMG 12228 / 1C / PRS 101 / PAO1)); test: Inhibition of Pseudomonas aeruginosa IMPDH at 47.1 uM using IMP as substrate in the presence of NAD+ incubated for 70 secs relative to control
[10] = molecular target: T1, Inosine-5'-monophosphate dehydrogenase (Pseudomonas aeruginosa (strain ATCC 15692 / DSM 22644 / CIP 104116 / JCM14847 / LMG 12228 / 1C / PRS 101 / PAO1)); test: Inhibition of Pseudomonas aeruginosa IMPDH assessed as Km for IMP at 10 uM using IMP as substrate in presence of 2 mM NAD+ and 0.2 mM MgATP (reference value: 483 +/- 65 microM)
[11] = molecular target: T1, Inosine-5'-monophosphate dehydrogenase (Pseudomonas aeruginosa (strain ATCC 15692 / DSM 22644 / CIP 104116 / JCM14847 / LMG 12228 / 1C / PRS 101 / PAO1)); test: Inhibition of Pseudomonas aeruginosa IMPDH at 37.1 uM using IMP as substrate in the presence of NAD+ incubated for 70 secs relative to control
[12] = molecular target: T1, Inosine-5'-monophosphate dehydrogenase (Pseudomonas aeruginosa (strain ATCC 15692 / DSM 22644 / CIP 104116 / JCM14847 / LMG 12228 / 1C / PRS 101 / PAO1)); test: Inhibition of Pseudomonas aeruginosa IMPDH at 55.6 uM using IMP as substrate in the presence of NAD+ incubated for 70 secs relative to control
[13] = molecular target: T1, Inosine-5'-monophosphate dehydrogenase (Pseudomonas aeruginosa (strain ATCC 15692 / DSM 22644 / CIP 104116 / JCM14847 / LMG 12228 / 1C / PRS 101 / PAO1)); test: Inhibition of Pseudomonas aeruginosa IMPDH at 39.6 uM using IMP as substrate in the presence of NAD+ incubated for 70 secs relative to control
[14] = molecular target: T1, Inosine-5'-monophosphate dehydrogenase (Pseudomonas aeruginosa (strain ATCC 15692 / DSM 22644 / CIP 104116 / JCM14847 / LMG 12228 / 1C / PRS 101 / PAO1)); test: Inhibition of Pseudomonas aeruginosa IMPDH at 35.1 uM using IMP as substrate in the presence of NAD+ incubated for 70 secs relative to control
[15] = molecular target: T1, Inosine-5'-monophosphate dehydrogenase (Pseudomonas aeruginosa (strain ATCC 15692 / DSM 22644 / CIP 104116 / JCM14847 / LMG 12228 / 1C / PRS 101 / PAO1)); test: Competitive inhibition of Pseudomonas aeruginosa IMPDH using IMP as substrate at varying levels and NAD+ in presence of ATP incubated for 70 secs
[16] = molecular target: T1, Inosine-5'-monophosphate dehydrogenase (Pseudomonas aeruginosa (strain ATCC 15692 / DSM 22644 / CIP 104116 / JCM14847 / LMG 12228 / 1C / PRS 101 / PAO1)); test: Inhibition of Pseudomonas aeruginosa IMPDH at 43.4 uM using IMP as substrate in the presence of NAD+ incubated for 70 secs relative to control
[17] = molecular target: T1, Inosine-5'-monophosphate dehydrogenase (Pseudomonas aeruginosa (strain ATCC 15692 / DSM 22644 / CIP 104116 / JCM14847 / LMG 12228 / 1C / PRS 101 / PAO1)); test: Inhibition of Pseudomonas aeruginosa IMPDH at 38.5 uM using IMP as substrate in the presence of NAD+ incubated for 70 secs relative to control
[18] = molecular target: T1, Inosine-5'-monophosphate dehydrogenase (Pseudomonas aeruginosa (strain ATCC 15692 / DSM 22644 / CIP 104116 / JCM14847 / LMG 12228 / 1C / PRS 101 / PAO1)); test: Inhibition of Pseudomonas aeruginosa IMPDH at 40 uM using IMP as substrate in the presence of NAD+ incubated for 70 secs relative to control

Work on `CC(=O)N1CCOc2cc(S(=O)(=O)Nc3ccc(F)c(Cl)c3)ccc21` yielded a K0.5 [1] of 747 µM, an inhibition [2] of 81.5% and an IC50 ([3]; read-out: IC50) of 17.1 µM. The inhibition [4] was “Active”.
Molecule `CCc1oc2ccccc2c1C(=O)c1cc(Br)c(O)c(Br)c1` [BENZBROMARONE] has an inhibition [5] of 73.3% and an IC50 ([3]; read-out: IC50) of 55 µM.
In the case of `Cc1ccc(-n2c(=O)[nH]cc(C(=O)Nc3ccc(C(C)C)cc3)c2=O)cc1C`, the inhibition [6] is reported as 75.4% and the IC50 [3] is reported as “Not Active”.
For `COc1ccccc1-c1noc(CCC(=O)Nc2ccc(Cl)cc2)n1`, the inhibition [7] was 70.6%, the inhibition [8] was “Active” and the IC50 ([3]; read-out: IC50) was 2.6 µM.
For `CC(=O)Nc1ccc(-c2cc(C(=O)O)nc3[nH]nc(-c4ccc(C)cc4)c23)cc1`, the inhibition [9] was 78.3%, the IC50 ([3]; read-out: IC50) was 23 µM and the inhibition [4] was “Active”.
Molecule `CC(=O)Nc1ccc(C2C3=C(Nc4c2c(=O)[nH]c(=O)n4Cc2ccccc2)c2ccccc2C3=O)cc1` (stereo not drawn) has a K0.5 [10] of 1310 µM, an inhibition [11] of 93.8% and an IC50 ([3]; read-out: IC50) of 2.8 µM. The inhibition [4] was “Active”.
`N#CC1=C(N)Oc2[nH]c(=O)[nH]c(=O)c2C1c1ccc([N+](=O)[O-])cc1` (stereo not drawn) showed a K0.5 [10] of 691 µM, an inhibition [12] of 87.8% and an IC50 ([3]; read-out: IC50) of 7 µM. The inhibition [4] was “Active”.
For `COc1ccc(-c2cc(C(=O)O)nc3[nH]nc(-c4ccc(C)cc4)c23)cc1Br`, the inhibition [13] was 83.1%, the IC50 ([3]; read-out: IC50) was 11.7 µM and the inhibition [4] was “Active”.
For `Cc1cc2c(C(C)C)c(O)c(O)c(C=O)c2c(O)c1-c1c(C)cc2c(C(C)C)c(O)c(O)c(C=O)c2c1O` [GOSSYPOL], the inhibition [14] was 100%, the IC50 ([3]; read-out: IC50) was 0.9 µM and the inhibition [15] was “Active”.
For `O=C(CCS(=O)(=O)c1ccc2c(c1)SCC(=O)N2)NCCCc1ccccc1`, the inhibition [16] was 76.7%, the inhibition [8] was “Active” and the IC50 ([3]; read-out: IC50) was 3.1 µM.
In the case of `COc1ccc(CCNc2nc3cc(Cl)c(Cl)cc3nc2-n2nc(C)cc2C)cc1OC`, the inhibition [17] is reported as 77.8% and the inhibition [18] is reported as 20%.
